Like-named read-outs stand apart in the source and are kept apart here.
What was measured:
[1] = In vitro human microsomal stability assay; type: in vitro ADME; conditions: for HUMAN MICROSOMAL STABILITY (% REMAINING AFTER 30 MINUTES): microsomes, 0.5 h, 0.5 μM, pH 7.4; for HUMAN […] (% REMAINING AFTER 30 MINUTES): human liver microsomes, 0.5 μM substrate, 0.25 mg/mL microsomal protein, pH 7.4, 37° C., NADPH
Protocol: (§1) Test compounds were evaluated for metabolic stability in an in vitro rat microsomal stability assay using rat liver microsomes (Sprague-Dawley, from BD Biosciences) and/or an in vitro human microsomal stability assay using human liver microsomes (Xenotech). […] Incubations were carried out at 37° C. with a final incubation volume of 135 μL. […] A 1.5 μL aliquot of reduced nicotine adenine disphosphonucleotide (NADPH) (Chem-Impex Int'L Inc., Lot 12532024) was also added to the time-zero plates.

[2] = In vitro rat microsomal stability assay; type: in vitro ADME, rat (Sprague-Dawley); conditions: for RAT MICROSOMAL STABILITY (% REMAINING AFTER 30 MINUTES): Sprague-Dawley, microsomes, 0.5 h, 0.5 μM, pH 7.4; for RAT […] (% REMAINING AFTER 30 MINUTES): rat liver microsomes (Sprague-Dawley), 0.5 μM substrate, 0.25 mg/mL microsomal protein, pH 7.4, 37° C., NADPH
Protocol: as §1

human TRPV3 = target: T1, human TRPV3 (Homo sapiens, UniProt Q8NET8); assay: In vitro antagonism of recombinant human TRPV3 activation (FLIPR Tetra calcium assay); type: cell-based; conditions: HEK293 cells stably expressing human TRPV3, agonist 2-APB at 80 μM
T1 construct: expressed in transfected cells
T1 sequence (Q8NET8 1-790): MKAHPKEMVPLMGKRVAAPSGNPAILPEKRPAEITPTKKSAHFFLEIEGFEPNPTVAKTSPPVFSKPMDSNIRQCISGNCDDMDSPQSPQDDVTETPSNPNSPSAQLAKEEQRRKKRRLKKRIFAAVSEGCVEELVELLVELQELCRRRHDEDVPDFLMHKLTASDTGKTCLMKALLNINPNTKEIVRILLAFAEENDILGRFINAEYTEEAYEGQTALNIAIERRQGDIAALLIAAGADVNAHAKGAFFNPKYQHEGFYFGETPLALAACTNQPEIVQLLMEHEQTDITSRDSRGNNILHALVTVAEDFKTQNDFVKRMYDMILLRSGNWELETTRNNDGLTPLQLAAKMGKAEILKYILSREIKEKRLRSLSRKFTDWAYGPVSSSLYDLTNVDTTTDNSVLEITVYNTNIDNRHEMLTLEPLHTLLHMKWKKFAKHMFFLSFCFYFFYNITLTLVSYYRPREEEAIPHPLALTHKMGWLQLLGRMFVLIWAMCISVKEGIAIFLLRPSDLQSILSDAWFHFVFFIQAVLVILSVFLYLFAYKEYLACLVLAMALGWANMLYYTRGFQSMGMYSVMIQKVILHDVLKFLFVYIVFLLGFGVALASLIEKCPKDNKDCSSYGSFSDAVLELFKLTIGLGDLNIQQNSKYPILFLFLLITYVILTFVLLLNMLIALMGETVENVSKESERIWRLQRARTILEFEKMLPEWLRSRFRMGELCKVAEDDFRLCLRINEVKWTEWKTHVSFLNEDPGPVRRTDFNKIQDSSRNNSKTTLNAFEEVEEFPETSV
Protocol: Test compounds were evaluated for ability to antagonize the activation of recombinant human TRPV3 using FLIPR® Tetra cellular screening. Specifically, on the day prior to the experiment recombinant HEK293 cells that stably express human TRPV3 were removed from tissue culture flasks and plated in growth medium at 20,000 cells/well into Poly-d-lysine coated black/clear 384-well Plate (Corning, 3845) using a Multidrop® dispenser (ThermoScientific, Waltham, Mass.). Prior to the start of the assay, the medium was removed by aspiration, and cells were loaded with 30 μL no-wash FLIPR® Calcium-4 dye (λEX=470-495 nm, λEM=515-575 nm; Molecular Devices, Sunnyvale, Calif.). The cells were then incubated for 90-120 minutes in the dark prior to addition of the test compound.
A double-addition protocol was used. The test compound (i.e., the TRPV3 antagonist) was added at the 10 second time point, followed by the addition of a TRPV3 agonist three minutes later. Each test compound evaluated was first dissolved in DMSO to prepare a 10 mM stock solution. A solution (5×) of the test compound was then prepared in DPBS (Dulbecco's Phosphate Buffered Saline) and 10 μl, of that solution was added to the cells at a delivery rate of 40 μL/sec. The TRPV3 agonist used to activate human TRPV3 expressed by the […] was 2-aminoethoxy-diphenyl borate (2-APB; Tocris Cookson, Ellisville, Mo.) at 80 μM. Final assay volume was 50 μl, Total length of an experimental run was 10 minutes.
Changes in fluorescence were measured over time using the FLIPR® instrument. The intensity of the fluorescence was captured and digitally transferred to an interfaced computer. The maximum response minus minimum response was calculated and expressed as the percentage of the maximum 2-APB response in the absence of antagonist. The concentration of 2-APB corresponds to its EC80.
Table 1 reports the IC50 values measured for the test compounds as human TRPV3 antagonists. […] Actual measured values are shown parenthetically after the reported range. In most cases, the values reported are average values from at least two runs (i.e., n≧2).

[3] = actual measured value shown parenthetically, in most cases average of at least two runs, read-out: IC50
[4] = reported range, read-out: IC50 (range class)

SMILES	RAT MICROSOMAL STABILITY (% REMAINING AFTER 30 MINUTES) [2] [%]	IC50 (human TRPV3; [3]) [µM]	also measured
COC1CC(c2ccc(Cl)c(Cl)c2)([C@H](O)c2ccccn2)C1 (mixture of isomers) [Example 151, (S)-[1-(3,4-dichlorophenyl)-3-methoxycyclobutyl](pyridin-2-yl)methanol]	<0.01	1.24	HUMAN MICROSOMAL STABILITY (% REMAINING AFTER 30 MINUTES) [1]: 32%
OC1CC(c2ccc(C(F)(F)F)cc2)([C@H](O)c2ccccn2)C1 (mixture of isomers) [Example 166, 3-[(S)-hydroxy(pyridin-2-yl)methyl]-3-[4-(trifluoromethyl)phenyl]-cyclobutanol]	>85	5.94	HUMAN MICROSOMAL STABILITY (% REMAINING AFTER 30 MINUTES) [1]: >85%
OC1CC(c2ccc(C(F)(F)F)cc2)([C@@H](O)c2ccccn2)C1 (mixture of isomers) [Example 199, 3-[(R)-hydroxy(pyridin-2-yl)methyl]-3-[4-(trifluoromethyl)phenyl]-cyclobutanol]	>85	> 20	HUMAN MICROSOMAL STABILITY (% REMAINING AFTER 30 MINUTES) [1]: >85%; IC50 (human TRPV3; [4]): > 20 µM
O[C@@H](c1ccccn1)[C@]1(c2cc(C(F)(F)F)ccn2)C[C@H](O)C1 (relative stereo) [Example 290, cis-3-[(R)-hydroxy(pyridin-2-yl)methyl]-3-[4-(trifluoromethyl)pyridin-2-yl]cyclobutanol]			HUMAN […] (% REMAINING AFTER 30 MINUTES) [1]: >85%; RAT […] (% REMAINING AFTER 30 MINUTES) [2]: 71%; IC50 (human TRPV3; [4]): > 20 µM
OC(c1ccccn1)C1(C2=CCCOC2)CCC1 (single isomer, unassigned) [Example 269, [1-(5,6-dihydro-2H-pyran-3-yl)cyclobutyl](pyridin-2-yl)methanol]	12		HUMAN MICROSOMAL STABILITY (% REMAINING AFTER 30 MINUTES) [1]: 40%
OC(c1ccccn1)C1(C2=COCCC2)CCC1 (single isomer, unassigned) [Example 270, [1-(3,4-dihydro-2H-pyran-5-yl)cyclobutyl](pyridine-2-yl)methanol]	0.48		HUMAN MICROSOMAL STABILITY (% REMAINING AFTER 30 MINUTES) [1]: 17%
CC1(O)CC(c2cncc(C(F)(F)F)c2)(C(O)c2ccccn2)C1 (single isomer, unassigned) [Example 309]		3.05	HUMAN MICROSOMAL STABILITY (% REMAINING AFTER 30 MINUTES) [1]: >85%
CCN(CC)c1ccc(C2(C(O)c3ccccn3)CCC2)cc1 (centres unmarked) [Example 18, {1-[4-(diethylamino)phenyl]cyclobutyl}(pyridin-2-yl)methanol]	0.27	0.74	
OC(c1ncccn1)C1(c2cccc(OC(F)(F)F)c2)CCC1 (centres unmarked) [Example 37, pyrimidin-2-yl{1-[3-(trifluoromethoxy)phenyl]cyclobutyl}methanol]	7.7	0.83	
OC(c1ncccn1)C1(c2ccc(Cl)c(Cl)c2)CCC1 (centres unmarked) [Example 38, [1-(3,4-dichlorophenyl)cyclobutyl] (pyrimidin-2-yl)methanol]	9.5	0.06	
CC(c1cccc(C(F)(F)F)c1)C1(C(O)c2ccccn2)CCC1 (centres unmarked) [Example 54, pyridin-2-yl(1-{1-[3-(trifluoromethyl)phenyl]ethyl}cyclobutyl)methanol]	0.21	22	
OC(C1CCc2cccnc21)C1(c2ccccc2OC(F)(F)F)CCC1 (stereo not drawn) [Example 193, (anti)-6,7-dihydro-5H-cyclopenta[b]pyridin-7-yl{1-[2-(trifluoromethoxy)-phenyl]cyclobutyl}methanol]			HUMAN […] (% REMAINING AFTER 30 MINUTES) [1]: 0.02%; RAT […] (% REMAINING AFTER 30 MINUTES) [2]: <0.01%
NC1CCCC1C(O)C1(c2cccc(OC(F)(F)F)c2)CCC1 (centres unmarked) [Example 208, (2-aminocyclopentyl) {1-[3-(trifluoromethoxy)phenyl]cyclobutyl}methanol]	36	2.06	
NC1CCCCC1C(O)C1(c2ccc(OC(F)(F)F)cc2)CCC1 (centres unmarked) [Example 209, (2-aminocyclohexyl) {1-[4-(trifluoromethoxy)phenyl]cyclobutyl}methanol]		4.6	
NC1CCCCC1C(O)C1(c2cccc(OC(F)(F)F)c2)CCC1 (centres unmarked) [Example 210, (2-aminocyclohexyl) {1-[3-(trifluoromethoxy)phenyl]cyclobutyl}methanol]		3.31	
NC1CCCCC1C(O)C1(c2ccc(Cl)c(Cl)c2)CCC1 (centres unmarked) [Example 211, (2-aminocyclohexyl)[1-(3,4-dichlorophenyl)cyclobutyl]methanol]		6.17	
NC1CCCC1C(O)C1(c2ccccc2OC(F)(F)F)CCC1 (centres unmarked) [Example 214, (2-aminocyclopentyl) {1-[2-(trifluoromethoxy)phenyl]cyclobutyl}methanol]		1.22	
NC1CCCC1C(O)C1(c2ccc(Cl)c(Cl)c2)CCC1 (centres unmarked) [Example 215, (2-aminocyclopentyl)[1-(3,4-dichlorophenyl)cyclobutyl]methanol]		0.77	
N[C@H]1CCC[C@H]1[C@@H](O)C1(c2ccc(Cl)c(Cl)c2)CCC1 [Example 218, (R)-[(1R,2S)-2-aminocyclopentyl][1-(3,4-dichlorophenyl)cyclobutyl]-methanol]		1.73	
N[C@H]1CCC[C@@H]1[C@H](O)C1(c2ccc(Cl)c(Cl)c2)CCC1 [Example 219, (S)-[(1S,2S)-2-aminocyclopentyl][1-(3,4-dichlorophenyl)cyclobutyl]-methanol]		3.07	
OC(c1ccccn1)C1(C2CCOCC2)CCC1 (centres unmarked) [Example 239, pyridin-2-yl[1-(tetrahydro-2H-pyran-4-yl)cyclobutyl]methanol]	0.072		HUMAN MICROSOMAL STABILITY (% REMAINING AFTER 30 MINUTES) [1]: 57%
OC(c1ccccn1)C1(C2=CCOCC2)CCC1 (centres unmarked) [Example 252, [1-(3,6-dihydro-2H-pyran-4-yl)cyclobutyl](pyridin-2-yl)methanol]		> 20	IC50 (human TRPV3; [4]): > 20 µM
CC1(O)CC(c2cccc(OC(F)(F)F)c2)(C(O)c2ccccn2)C1 [Example 263, trans-3-[(S)-hydroxy(pyridin-2-yl)methyl]-1-methyl-3-[3-(trifluoromethoxy)phenyl]cyclobutanol]	>85	2.8	
CC1(O)CC(c2ccc(OC(F)(F)F)cc2)(C(O)c2ncccn2)C1 [Example 311, (trans)-3-((R)-hydroxy(pyrimidin-2-yl)methyl)-1-methyl-3-(4-(trifluoromethoxy)phenyl)cyclobutanol]	>85	> 20	IC50 (human TRPV3; [4]): > 20 µM
